From patent US20240376097A1, “BCL-2 Inhibitor” (BeiGene Ltd., priority 2020, published 2024)
Read-outs that look alike come from different tables or passages of the source.

Legend:
[1] = Metabolic Stability Study, liver microsome incubation (mouse); type: in vitro ADME; settings: mouse liver microsomes 0.5 mg/mL, 1 μM compound, NADPH; for half-life at 1 μM: NA^# = very stable, beyond the detection limits, read-out: T1/2 (min) mouse; for microsomal CLint at 1 μM: read-out: CLint (μL × min^−1 × mg^−1) mouse
Description: (§1) Biological Example: Metabolic Stability Study
(§2) The metabolic stability of some compounds was evaluated by using the liver microsome incubation system in vitro. Briefly, the test compounds at 1 μM, were incubated with 0.5 mg/mL liver microsomes from different species (human, dog, rat and mouse) with an NADPH regenerating system at 37° C. Samples were quenched at three time points (0, 30, 60 min) with organic solvent containing internal standards, and the supernatant was analyzed for parent loss via LC-MS/MS. Midazolam was used as the positive control to validate the incubation system.
(§3) where Cprotein is the microsomal protein concentration in the incubation system.
(§4) The value of CLint and T1/2 of Example F132b in WO2019210818 and representative compounds of the disclosure were determined, and the results are shown in Table 5.

[2] = tested on: BCL-2 G101V knock-in cell line H96 (derive from RS4;11); test: Bcl 2-G101V Knock-In RS4;11 Cell Proliferation Assay; type: cell-based; settings: Homo sapiens, RS4;11 Bcl-2 G101V knock-in clone H96, 48 hrs, CellTiter-GLO, read-out: Cellular proliferation assay (IC50, nM) RS4
Outline: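 CellTiter-Glo luminescence after 48 h, 37 °C compound treatment (10 concentrations, maximum 1 μM or 10 μM) gave mean IC50 values. Cells were 50,000 per well of H96, a BCL2-G101V knock-in single clone derived from RS4;11 by Cas9 editing.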

[3] = tested on: RS4;11 (BCL-2 dependent acute lymphoblastic leukemia cell line); test: RS4;11 Cell Proliferation Assay; type: cell-based; settings: Homo sapiens, read-out: Cellular proliferation assay (IC50, nM) RS4
Outline: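 Viability measured via CellTiter-Glo luminescence after a 48 h, 37 °C exposure to compounds (10 points, highest 1 μM). Seeding was 50,000 RS4;11 cells per well in 10% FBS RPMI-1640; IC50 given as mean.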

[4] = Metabolic Stability Study, liver microsome incubation (human); type: in vitro ADME; settings: human liver microsomes 0.5 mg/mL, 1 μM compound, NADPH; for half-life at 1 μM: NA^# = very stable, beyond the detection limits, read-out: T1/2 (min) Human; for microsomal CLint at 1 μM: read-out: CLint (μL × min^−1 × mg^−1) Human
Description: as §1, §2, §3, §4

[5] = molecular target: recombinant human Bcl-2 D103Y protein (Homo sapiens (Human), UniProt P10415, D103Y); test: Bcl-2-D103Y Biochemical Assay (TR-FRET); type: binding; settings: for IC50: TR-FRET, FITC labeled Bak peptide; for Ratio of Bcl-2 D103Y/Bcl-2 WT: ratio of IC50
Outline: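 Compounds titrated against the Bcl-2 D103Y–ligand interaction; inhibition derived from the TR-FRET emission ratio 490 nm/520 nm after 337 nm excitation. Four-parameter logistic fitting gave IC50.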

[6] = molecular target: Recombinant human Bcl-2 protein (Homo sapiens (Human), UniProt P10415); test: Bcl-2 TR-FRET Assay; type: binding
Outline: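 In pH 7.5 phosphate buffer containing NaCl, EDTA, Tween-20 and BSA, 0.05 nM Bcl-2 saw serially diluted compound for 0.5 h before 0.5 nM FITC-Bak peptide was added. Signal ratio at 520/490 nm after 1 h yielded IC50.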

[7] = molecular target: recombinant human Bcl-2-G101V protein (Homo sapiens (Human), UniProt P10415, G101V); test: Bcl-2-G101V TR-FRET Assay; type: binding; settings: Bcl-2 G101V mutant, TR-FRET; read-out: Biochemical assay (IC50, nM) Bcl-2 G101V
Outline: (§5)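 Ex337/em490 & 520 nm TR-FRET; % inhibition of Bcl-2-G101V–ligand interaction from 490:520 ratio vs. increasing compound conc.; IC50 by 4-parameter logistic fit.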

[8] = tested on: recombinant human Bcl-2-G101V protein; test: Bcl-2-G101V TR-FRET Assay; type: binding; settings: ratio of biochemical IC50 Bcl-2 G101V / Bcl-2 WT
Outline: as §5

[9] = wild type Bcl-2, unit inferred, read-out: Bcl-2 WT
[10] = Bcl-2 wild type, TR-FRET, read-out: Biochemical assay (IC50, nM) Bcl-2 WT

| Compound | half-life at 1 μM [1] | microsomal CLint at 1 μM [1] | IC50 ([2]; RS4-11, 48 h) | IC50 ([3]; RS4;11 cells) | half-life at 1 μM [4] | microsomal CLint at 1 μM [4] | IC50 [5] | Ratio of Bcl-2 D103Y/Bcl-2 WT [5] | IC50 [6, 9] | IC50 [2] | IC50 [7] | Ratio of Bcl-2 G101V/WT [8] | IC50 ([3]; RS4-11, RS4;11 cells) | IC50 [6, 10] |
| --- | --- | --- | --- | --- | --- | --- | --- | --- | --- | --- | --- | --- | --- | --- |
| COc1ccc(CN2CCN(C3CC4(CCN(c5ccc(C(=O)NS(=O)(=O)c6ccc(NC[C@H]7CC[C@](C)(O)CC7)c([N+](=O)[O-])c6)c(Oc6cnc7[nH]ccc7c6)c5)CC4)C3)C(c3ccccc3C(C)C)C2)cc1 (stereo partly drawn) [Example 19, 2-((1H-pyrrolo[2,3-b]pyridin-5-yl)oxy)-N-((4-((((1r,4r)-4-hydroxy-4-methylcyclohexyl)methyl)amino)-3-nitrophenyl)sulfonyl)-4-(2-(2-(2-isopropylphenyl)-4-(4-methoxybenzyl)piperazin-1-yl)-7-azaspiro[3.5]nonan-7-yl)benzamide] | 292 min | 4.7 µL/min/mg | 1.9 nM | 0.33 nM | 1230 min | 1.1 µL/min/mg |  |  |  |  |  |  |  |  |
| CC(C)c1ccccc1C1CC(Cc2ccccc2)CCN1C1CC2(CCN(c3ccc(C(=O)NS(=O)(=O)c4ccc(NC[C@H]5CC[C@](C)(O)CC5)c([N+](=O)[O-])c4)c(Oc4cnc5[nH]ccc5c4)c3)CC2)C1 (stereo partly drawn) [Example 67, 2-((1H-pyrrolo[2,3-b]pyridin-5-yl)oxy)-4-(2-(4-benzyl-2-(2-isopropylphenyl)piperidin-1-yl)-7-azaspiro[3.5]nonan-7-yl)-N-((4-((((1r,4r)-4-hydroxy-4-methylcyclohexyl)methyl)amino)-3-nitrophenyl)sulfonyl)benzamide] | 272 min | 5.1 µL/min/mg |  |  | 309 min | 4.5 µL/min/mg |  |  |  |  |  |  |  |  |
| COc1ccc(CN2CCN(C3CC4(CCN(c5ccc(C(=O)NS(=O)(=O)c6ccc(NC[C@H]7COCCO7)c([N+](=O)[O-])c6)c(Oc6cnc7[nH]ccc7c6)c5)CC4)C3)[C@H](c3ccccc3C(C)C)C2)cc1 (single isomer, unassigned) [Example 33, N-((4-((((S)-1,4-dioxan-2-yl)methyl)amino)-3-nitrophenyl)sulfonyl)-2-((1H-pyrrolo[2,3-b]pyridin-5-yl)oxy)-4-(2-((R or S)-2-(2-isopropylphenyl)-4-(4-methoxybenzyl)piperazin-1-yl)-7-azaspiro[3.5]nonan-7-yl)benzamide] | 233 min | 5.9 µL/min/mg |  |  | 1820 min | 0.8 µL/min/mg | 94 pM | 2.5 | 0.038 nM |  |  |  |  |  |
| CC(C)c1ccccc1C1CN(Cc2ccc3c(c2)OCCO3)CCN1C1CC2(CCN(c3ccc(C(=O)NS(=O)(=O)c4ccc(NC[C@H]5CC[C@](C)(O)CC5)c([N+](=O)[O-])c4)c(Oc4cnc5[nH]ccc5c4)c3)CC2)C1 (stereo partly drawn) [Example 78, 2-((1H-pyrrolo[2,3-b]pyridin-5-yl)oxy)-4-(2-(4-((2,3-dihydrobenzo[b] [1,4]dioxin-6-yl)methyl)-2-(2-isopropylphenyl)piperazin-1-yl)-7-azaspiro[3.5]nonan-7-yl)-N-((4-((((1r,4r)-4-hydroxy-4-methylcyclohexyl)methyl)amino)-3-nitrophenyl)sulfonyl)benzamide] |  |  |  |  |  |  | 620 pM | 2.9 | 0.21 nM | 2.6 nM | 0.98 nM | 4.6 | 0.42 nM | 0.21 nM |
| COc1ccc(CN2CCN(C3CC4(C3)CN(c3ccc(C(=O)NS(=O)(=O)c5ccc(NCC67CC8CC(C6)CC(OC)(C8)C7)c([N+](=O)[O-])c5)c(Oc5cnc6[nH]cc(F)c6c5)c3)C4)[C@H](c3ccccc3C(C)C)C2)cc1 [Example 357, 2-((3-fluoro-1H-pyrrolo[2,3-b]pyridin-5-yl)oxy)-4-(6-((R)-2-(2-isopropylphenyl)-4-(4-methoxybenzyl)piperazin-1-yl)-2-azaspiro[3.3]heptan-2-yl)-N-((4-((((1r,5R,7S)-3-methoxyadamantan-1-yl)methyl)amino)-3-nitrophenyl)sulfonyl) benzamide] |  |  |  |  |  |  | 1000 pM | 1.8 | 0.57 nM | 1 nM | 1.4 nM | 2.5 | 0.19 nM | 0.57 nM |
| COc1cc(CN2CCN(C3CC4(CCN(c5ccc(C(=O)NS(=O)(=O)c6ccc(NC[C@H]7CC[C@](C)(O)CC7)c([N+](=O)[O-])c6)c(Oc6cnc7[nH]cc(F)c7c6)c5)CC4)C3)[C@H](c3ccccc3C(C)C)C2)ccc1F [Example 190, 2-((3-fluoro-1H-pyrrolo[2,3-b]pyridin-5-yl)oxy)-4-(2-((R)-4-(4-fluoro-3-methoxybenzyl)-2-(2-isopropylphenyl)piperazin-1-yl)-7-azaspiro[3.5]nonan-7-yl)-N-((4-((((1r,4r)-4-hydroxy-4-methylcyclohexyl)methyl)amino)-3-nitrophenyl)sulfonyl)benzamide] |  |  |  |  |  |  | 340 pM | 1.5 | 0.23 nM | 0.37 nM | 0.62 nM | 2.7 | 0.13 nM | 0.23 nM |
| COc1cc(CN2CCN(C3CC4(C3)CN(c3ccc(C(=O)NS(=O)(=O)c5ccc(NC[C@H]6CC[C@](C)(O)CC6)c([N+](=O)[O-])c5)c(Oc5cnc6[nH]cc(F)c6c5)c3)C4)[C@H](c3ccccc3C(C)C)C2)ccc1F [Example 184, 2-((3-fluoro-1H-pyrrolo[2,3-b]pyridin-5-yl)oxy)-4-(6-((R)-4-(4-fluoro-3-methoxybenzyl)-2-(2-isopropylphenyl)piperazin-1-yl)-2-azaspiro[3.3]heptan-2-yl)-N-((4-((((1r,4r)-4-hydroxy-4-methylcyclohexyl)methyl)amino)-3-nitrophenyl)sulfonyl)benzamide] |  |  |  |  |  |  | 190 pM | 1 | 0.19 nM | 0.44 nM | 0.53 nM | 2.9 | 0.16 nM | 0.19 nM |
| COc1cc(CN2CCN(C3CC4(CCN(c5ccc(C(=O)NS(=O)(=O)c6ccc(NC[C@H]7CC[C@](C)(O)CC7)c([N+](=O)[O-])c6)c(Oc6cnc7[nH]ccc7c6)c5)CC4)C3)[C@H](c3ccccc3C(C)C)C2)cc2c1OCCC2 [Example 302, 2-((1H-pyrrolo[2,3-b]pyridin-5-yl)oxy)-N-((4-((((1r,4r)-4-hydroxy-4-methylcyclohexyl)methyl)amino)-3-nitrophenyl)sulfonyl)-4-(2-((R)-2-(2-isopropylphenyl)-4-((8-methoxychroman-6-yl)methyl)piperazin-1-yl)-7-azaspiro[3.5]nonan-7-yl)benzamide] |  |  |  |  |  |  | 69 pM | 1.0 | 0.071 nM | 0.79 nM | 0.2 nM | 2.8 | 0.31 nM | 0.071 nM |
